System: PC3 human prostate cancer cells
Test: RNA-seq mRNA abundance (part of ribosome profiling experiment);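 also: average poly(A) RNA-seq read density per codon over the coding sequence, excluding 15 initial and 5 final codons, mapped to hg19 transcripts, taken as mRNA abundance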
Type: cell-based
Settings: for Rapamycin mRNA: 3-hour treatment with rapamycin (50 nM) in PC3 cells
Description: Cells were subsequently treated with cycloheximide (100 μg ml^−1; Sigma) and detergent lysis was performed in the dish. The lysate was treated with DNase and clarified, and a sample was taken for RNA-seq analysis. Lysates were subjected to ribosome footprinting by nuclease treatment. Ribosome-protected fragments were purified, and deep sequencing libraries were generated from these fragments, as well as from poly(A) mRNA purified from non-nuclease-treated lysates. These libraries were analyzed by sequencing on an Illumina GAII.
Ribosome footprint and RNA-seq sequencing reads were aligned against a library of transcripts from the UCSC Known Genes database GRCh37/hg19. The first 25 nucleotides of each read were aligned using Bowtie and this initial alignment was then extended to encompass the full fragment-derived portion of the sequencing read while excluding the linker sequence. Read density profiles were then constructed for the canonical transcript of each gene, using only reads with 0 or 1 total mismatches between the read sequence and the reference sequence, comprised of the transcript fragment followed by the linker sequence. Footprint reads were assigned to an A site nucleotide at position +15 to +17 of the alignment, based on the total fragment length; mRNA reads were assigned to the first nucleotide of the alignment. The average read density per codon was then computed for the coding sequence of each transcript, excluding the first 15 and last 5 codons, which can display atypical ribosome accumulation.
Average read density was used as a measure of mRNA abundance (RNA-seq reads) and of protein synthesis (ribosome profiling reads). For most analyses, genes were filtered to require at least 256 reads in the relevant RNA-seq samples. Translational efficiency was computed as the ratio of ribosome footprint read density to RNA-seq read density, scaled to normalize the translational efficiency of the median gene to 1.0 after excluding regulated genes (log 2 fold-change+1.5 after normalizing for the all-gene median). Changes in protein synthesis, mRNA abundance and translational efficiency were similarly computed as the ratio of read densities between different samples, normalized to give the median gene a ratio of 1.0. This normalization corrects for differences in the absolute number of sequencing reads obtained for different libraries.

With `CO[C@H]1C[C@@H]2CC[C@@H](C)[C@@](O)(O2)C(=O)C(=O)N2CCCC[C@H]2C(=O)O[C@H]([C@H](C)C[C@@H]2CC[C@@H](O)[C@H](OC)C2)CC(=O)[C@H](C)/C=C(\C)[C@@H](O)[C@@H](OC)C(=O)[C@H](C)C[C@H](C)/C=C/C=C/C=C/1C` [Rapamycin, rapamycin] as the compound, how does the “Rapamycin mRNA” value (gene ACD) read?
The value was −0.96.

And the mRNA (gene ACTG1)?
Its mRNA is 0.02.

What about the mRNA (gene AGRN) of the same compound?
The mRNA was 0.01.

And the mRNA (gene ALKBH7)?
The mRNA was 0.06.

And the mRNA (gene AP2A1)?
The mRNA was 0.09.

What about the mRNA (gene ARD1A) of the same compound?
Its mRNA is −0.04.

And the mRNA (gene ATP5G2)?
The mRNA was 0.29.

What about the “Rapamycin mRNA” value (gene C17orf28) of the same compound?
Its value is −0.44.

And the mRNA (gene C21orf66)?
The mRNA was −0.30.

What about the “Rapamycin mRNA” value (gene CCNA1) of the same compound?
Its value is −0.51.

And the mRNA (gene CCNI)?
Its mRNA is 0.29.

And the mRNA (gene CD44)?
Its mRNA is 0.34.

And the mRNA (gene CIRBP)?
Its mRNA is 0.14.

What about the mRNA (gene CLPTM1) of the same compound?
Its mRNA is 0.07.

And the mRNA (gene COL6A2)?
The mRNA was −0.08.

What about the mRNA (gene CRTAP) of the same compound?
Its mRNA is 0.29.

What about the “Rapamycin mRNA” value (gene DDX51) of the same compound?
Its value is −0.24.

And the “Rapamycin mRNA” value (gene DGCR2)?
The value was −0.66.

And the mRNA (gene ECSIT)?
Its mRNA is −0.04.

What about the “Rapamycin mRNA” value (gene EEF1A1) of the same compound?
Its value is 0.46.

What about the mRNA (gene EEF1A2) of the same compound?
The mRNA was 0.03.

And the mRNA (gene EEF1D)?
Its mRNA is 0.18.

And the mRNA (gene EEF1G)?
The mRNA was 0.21.

What about the mRNA (gene EEF2) of the same compound?
Its mRNA is 0.39.

What about the mRNA (gene EIF3H) of the same compound?
Its mRNA is 0.16.

And the mRNA (gene EIF3L)?
The mRNA was 0.28.

What about the mRNA (gene EIF4B) of the same compound?
The mRNA was 0.55.

And the mRNA (gene EVPL)?
Its mRNA is −0.08.

What about the mRNA (gene FAM83H) of the same compound?
Its mRNA is −0.17.

What about the mRNA (gene FAM128B) of the same compound?
The mRNA was 0.06.

And the mRNA (gene FASN)?
The mRNA was −0.37.

And the mRNA (gene GLTSCR2)?
Its mRNA is 0.31.

And the mRNA (gene GNB2L1)?
The mRNA was 0.19.

What about the “Rapamycin mRNA” value (gene GTPBP3) of the same compound?
Its value is −0.73.

And the mRNA (gene HNRNPA1)?
The mRNA was 0.18.

And the mRNA (gene HSPA8)?
The mRNA was −0.21.

And the mRNA (gene IMPDH2)?
The mRNA was 0.11.

What about the mRNA (gene LAMA5) of the same compound?
The mRNA was −0.32.

And the mRNA (gene LMF2)?
Its mRNA is 0.22.

What about the “Rapamycin mRNA” value (gene MAPK6) of the same compound?
The value was 0.13.

What about the “Rapamycin mRNA” value (gene MAPKAPK2) of the same compound?
Its value is −0.21.

What about the mRNA (gene MTA1) of the same compound?
The mRNA was 0.00.

And the mRNA (gene NCLN)?
Its mRNA is −0.05.

What about the “Rapamycin mRNA” value (gene NFATC21P) of the same compound?
The value was −0.16.

And the “Rapamycin mRNA” value (gene NR2F1)?
Its value is 0.05.

And the mRNA (gene PABPC1)?
The mRNA was 0.35.

And the mRNA (gene PABPC4)?
The mRNA was 0.24.

What about the mRNA (gene PACS1) of the same compound?
The mRNA was 0.07.

And the mRNA (gene PFDN5)?
The mRNA was 0.11.

What about the mRNA (gene PGLS) of the same compound?
Its mRNA is 0.03.

And the mRNA (gene PGM1)?
Its mRNA is 0.40.

And the mRNA (gene PNKP)?
The mRNA was −0.24.

And the “Rapamycin mRNA” value (gene PRKD3)?
Its value is −0.22.

What about the mRNA (gene PTGES2) of the same compound?
Its mRNA is −0.19.

And the mRNA (gene RABGGTB)?
The mRNA was −0.20.

What about the mRNA (gene RPL3) of the same compound?
Its mRNA is 0.18.

And the mRNA (gene RPL4)?
Its mRNA is 0.22.

What about the mRNA (gene RPL7) of the same compound?
The mRNA was 0.15.

What about the mRNA (gene RPL7A) of the same compound?
The mRNA was 0.17.

What about the mRNA (gene RPL9) of the same compound?
The mRNA was 0.16.

What about the mRNA (gene RPL10) of the same compound?
The mRNA was 0.09.

And the mRNA (gene RPL10A)?
The mRNA was 0.16.

And the mRNA (gene RPL11)?
Its mRNA is 0.09.

What about the mRNA (gene RPL12) of the same compound?
Its mRNA is 0.07.

And the mRNA (gene RPL13)?
Its mRNA is 0.14.

What about the mRNA (gene RPL13A) of the same compound?
Its mRNA is 0.15.

What about the mRNA (gene RPL15) of the same compound?
The mRNA was 0.11.

And the mRNA (gene RPL18A)?
The mRNA was 0.17.

What about the mRNA (gene RPL19) of the same compound?
Its mRNA is 0.14.

And the mRNA (gene RPL21)?
Its mRNA is 0.14.

What about the mRNA (gene RPL22) of the same compound?
The mRNA was 0.08.

And the mRNA (gene RPL24)?
Its mRNA is 0.11.

And the mRNA (gene RPL26)?
Its mRNA is 0.15.

What about the mRNA (gene RPL27) of the same compound?
Its mRNA is 0.05.

And the mRNA (gene RPL27A)?
The mRNA was 0.06.

And the mRNA (gene RPL28)?
Its mRNA is 0.24.

And the “Rapamycin mRNA” value (gene RPL28)?
The value was 0.64.

What about the mRNA (gene RPL31) of the same compound?
The mRNA was −0.02.

And the mRNA (gene RPL32)?
Its mRNA is 0.22.

What about the mRNA (gene RPL34) of the same compound?
Its mRNA is 0.11.

What about the mRNA (gene RPL36A) of the same compound?
Its mRNA is 0.13.

And the mRNA (gene RPL37A)?
The mRNA was 0.08.

What about the mRNA (gene RPL39) of the same compound?
The mRNA was 0.17.

What about the “Rapamycin mRNA” value (gene RPL39) of the same compound?
The value was 0.30.

And the mRNA (gene RPL41)?
The mRNA was 0.04.

What about the mRNA (gene RPLP0) of the same compound?
Its mRNA is 0.15.

And the mRNA (gene RPLP1)?
The mRNA was 0.28.

And the mRNA (gene RPLP2)?
The mRNA was 0.26.

And the mRNA (gene RPS2)?
The mRNA was 0.07.

What about the mRNA (gene RPS3) of the same compound?
The mRNA was 0.22.

And the mRNA (gene RPS3A)?
Its mRNA is 0.22.

What about the mRNA (gene RPS4X) of the same compound?
The mRNA was 0.18.

And the mRNA (gene RPS5)?
The mRNA was 0.14.

And the mRNA (gene RPS7)?
The mRNA was 0.11.

What about the mRNA (gene RPS9) of the same compound?
Its mRNA is 0.10.

And the mRNA (gene RPS12)?
Its mRNA is 0.11.

And the mRNA (gene RPS13)?
The mRNA was 0.07.

What about the mRNA (gene RPS14) of the same compound?
The mRNA was 0.10.

What about the mRNA (gene RPS15) of the same compound?
The mRNA was −0.01.

What about the mRNA (gene RPS15A) of the same compound?
The mRNA was 0.07.

And the mRNA (gene RPS19)?
Its mRNA is 0.15.

What about the mRNA (gene RPS20) of the same compound?
The mRNA was 0.18.

What about the “Rapamycin mRNA” value (gene RPS20) of the same compound?
Its value is 0.14.

What about the mRNA (gene RPS21) of the same compound?
The mRNA was −0.01.

And the mRNA (gene RPS25)?
The mRNA was 0.04.

What about the mRNA (gene RPS27) of the same compound?
The mRNA was 0.10.

And the “Rapamycin mRNA” value (gene RPS27)?
Its value is 0.07.

And the mRNA (gene RPS27A)?
Its mRNA is 0.16.

And the mRNA (gene RPS28)?
The mRNA was 0.01.

And the “Rapamycin mRNA” value (gene SDCCAG10)?
Its value is −0.19.

And the mRNA (gene SLC19A1)?
The mRNA was -0.36.

And the mRNA (gene TKT)?
The mRNA was 0.02.

What about the mRNA (gene TPT1) of the same compound?
Its mRNA is 0.24.

What about the mRNA (gene TSC2) of the same compound?
The mRNA was −0.15.

What about the mRNA (gene UBA52) of the same compound?
The mRNA was 0.12.

What about the “Rapamycin mRNA” value (gene UBTD2) of the same compound?
The value was 0.19.

What about the “Rapamycin mRNA” value (gene UCHL5) of the same compound?
The value was −0.08.

And the “Rapamycin mRNA” value (gene VHL)?
Its value is −0.23.

What about the mRNA (gene VIM) of the same compound?
Its mRNA is 0.36.

What about the mRNA (gene YB1) of the same compound?
The mRNA was 0.11.

From patent US20190093170A1, “USE OF TRANSLATIONAL PROFILING TO IDENTIFY TARGET MOLECULES FOR THERAPEUTIC TREATMENT” (THE REGENTS OF THE UNIVERSITY OF CALIFORNIA, priority 2013, published 2019)
